Source: patent US20230077362A1 (CORTEVA AGRISCIENCE LLC, priority 2019, published 2023)
Read-outs that look alike come from different tables or passages of the source.

Tests used:
[1] = test system: Beet Armyworm (Spodoptera exigua) ("BAW"), second instar larvae; assay: Bioassay on beet armyworm (BAW), 128-well diet tray assay; assay type: in vivo; settings: for pest or weed control at 50 µg/cm2: Spodoptera exigua; for BAW rating: Table ABC, species BAW, C = not tested, D = no activity noticed
How it was run: (§1)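 Covered trays were held at 25° C. under a 14:10 light-dark cycle for five to seven days. Percent mortality was then scored in each well, and activity across eight wells was averaged.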

[2] = test system: Cabbage Looper (Trichoplusia ni) ("CL"), second instar larvae; assay: Bioassay on cabbage looper (CL), 128-well diet tray assay; assay type: in vivo; settings: for pest or weed control at 50 µg/cm2: Trichoplusia ni; for CL rating: Table ABC, species CL, C = not tested, D = no activity noticed
How it was run: as §1

[3] = read-out: BAW (Biological Results, rating)
[4] = read-out: CL (Biological Results, rating)

SMILES | pest or weed control at 50 µg/cm2 [1, 3] [%] | pest or weed control at 50 µg/cm2 [2, 4] [%] | pest or weed control at 50 µg/cm2 ([1]; read-out: BAW rating) [%] | pest or weed control at 50 µg/cm2 ([2]; read-out: CL rating) [%] | other results
COc1ccc(C(C)C)c(N2C(=O)CS/C2=N\C(=O)Nc2ccc(-c3ncn(-c4ccc(C(F)(F)F)cc4)n3)cc2F)c1 [Compound J11, (Z)-1-(2-Fluoro-4-(1-(4-(trifluoromethyl)phenyl)-1H-1,2,4-triazol-3-yl)phenyl)-3-(3-(2-isopropyl-5-methoxyphenyl)-4-oxothiazolidin-2-ylidene)urea] | 50 to 100 | 50 to 100 |  |  | 
CC(=O)c1cc(-c2ncn(-c3ccc(OC(F)(F)F)cc3)n2)ccc1NC(=O)/N=C1\SCC(=O)N1c1cc(C)ccc1C(C)C [Compound J395, (Z)-1-(2-Acetyl-4-(1-(4-(trifluoromethoxy)phenyl)-1H-1,2,4-triazol-3-yl)phenyl)-3-(3-(2-isopropyl-5-methylphenyl)-4-oxothiazolidin-2-ylidene)urea] |  |  | 50 to 100 | 50 to 100 | 
Cc1ccc(OCC(F)(F)F)c(N2C(=O)CS/C2=N\C(=O)Nc2ccc(-c3ncn(-c4ccc(OC(F)(F)F)cc4)n3)cc2C(F)F)c1 [Compound J212, (Z)-1-(2-(Difluoromethyl)-4-(1-(4-(trifluoromethoxy)phenyl)-1H-1,2,4-triazol-3-yl)phenyl)-3-(3-(5-methyl-2-(2,2,2-trifluoroethoxy)phenyl)-4-oxothiazolidin-2-ylidene)urea] | 50 to 100 | 50 to 100 |  |  | 
CCCc1ccc(C)cc1N1C(=O)CS/C1=N\C(=O)Nc1ccc(-c2ncn(-c3ccc(S(F)(F)(F)(F)F)cc3)n2)cc1C(F)(F)F [Compound J628, (Z)-1-(3-(5-Methyl-2-propylphenyl)-4-oxothiazolidin-2-ylidene)-3-(4-(1-(4-(pentafluoro-λ^6-sulfaneyl)phenyl)-1H-1,2,4-triazol-3-yl)-2-(trifluoromethyl)phenyl)urea] |  |  | 50 to 100 | 50 to 100 | 
COc1ccc(C(C)C)c(N2C(=O)CS/C2=N\C(=O)Nc2ccc(-c3ncn(-c4ccc(OC(F)(F)C(F)(F)F)cc4)n3)c(C)c2)c1 [Compound J7, (Z)-1-(3-(2-Isopropyl-5-methoxyphenyl)-4-oxothiazolidin-2-ylidene)-3-(3-methyl-4-(1-(4-(perfluoroethoxy)phenyl)-1H-1,2,4-triazol-3-yl)phenyl)urea] | 50 to 100 | 50 to 100 |  |  | 
CC(C)c1cc(-c2ncn(-c3ccc(OC(F)(F)F)cc3)n2)ccc1NC(=O)/N=C1\SCC(=O)N1c1cc(N(C)C)ccc1OCCC(F)(F)F [Compound J111, (Z)-1-(3-(5-(Dimethylamino)-2-(3,3,3-trifluoropropoxy)phenyl)-4-oxothiazolidin-2-ylidene)-3-(2-isopropyl-4-(1-(4-(trifluoromethoxy)phenyl)-1H-1,2,4-triazol-3-yl)phenyl)urea] | 50 to 100 | 50 to 100 |  |  | 
Cc1ccc(COCC(F)(F)F)c(N2C(=O)CS/C2=N\C(=O)Nc2ccc(-c3ncn(-c4ccc(OC(F)(F)F)cc4)n3)cc2O)c1 [Compound J178, (Z)-1-(2-Hydroxy-4-(1-(4-(trifluoromethoxy)phenyl)-1H-1,2,4-triazol-3-yl)phenyl)-3-(3-(5-methyl-2-((2,2,2-trifluoroethoxy)methyl)phenyl)-4-oxothiazolidin-2-ylidene)urea] | 50 to 100 | 50 to 100 |  |  | 
CC(C)c1ccc(N(C)C)cc1N1C(=O)CS/C1=N\C(=O)Nc1ccc(-c2ncn(-c3ccc(OC(F)(F)F)cn3)n2)cc1Cl [Compound J253, (Z)-1-(2-Chloro-4-(1-(5-(trifluoromethoxy)pyridin-2-yl)-1H-1,2,4-triazol-3-yl)phenyl)-3-(3-(5-(dimethylamino)-2-isopropylphenyl)-4-oxothiazolidin-2-ylidene)urea] | 50 to 100 | 50 to 100 |  |  | 
Cc1ccc(OCCC(F)(F)F)c(N2C(=O)C(Cl)S/C2=N\C(=O)Nc2ccc(-c3ncn(-c4ccc(OC(F)(F)F)cc4)n3)cc2F)c1 (centres unmarked) [Compound J36, (Z)-1-(5-Chloro-3-(5-methyl-2-(3,3,3-trifluoropropoxy)phenyl)-4-oxothiazolidin-2-ylidene)-3-(2-fluoro-4-(1-(4-(trifluoromethoxy)phenyl)-1H-1,2,4-triazol-3-yl)phenyl)urea] | 50 to 100 | 50 to 100 |  |  | 
CCOCc1ccc(C)cc1N1C(=O)CS/C1=N\C(=O)Nc1ccc(-c2ncn(-c3ccc(OCC(F)(F)F)cc3)n2)cc1F [Compound J766, (Z)-1-(3-(2-(Ethoxymethyl)-5-methylphenyl)-4-oxothiazolidin-2-ylidene)-3-(2-fluoro-4-(1-(4-(2,2,2-trifluoroethoxy)phenyl)-1H-1,2,4-triazol-3-yl)phenyl)urea] |  |  | 50 to 100 | 50 to 100 | 
CC(C)c1ccc(N(C)C)cc1N1C(=O)CS/C1=N\C(=O)Nc1ccc(-c2ncn(-c3cccc(OC(F)(F)F)c3)n2)cc1 [Compound J329, (Z)-1-(3-(5-(Dimethylamino)-2-isopropylphenyl)-4-oxothiazolidin-2-ylidene)-3-(4-(1-(3-(trifluoromethoxy)phenyl)-1H-1,2,4-triazol-3-yl)phenyl)urea] | 50 to 100 | 50 to 100 |  |  | 
Cc1ccc(COCC(F)(F)F)c(N2C(=O)CS/C2=N\C(=O)Nc2ccc(-c3ncn(-c4cccc(OC(F)(F)F)c4)n3)cc2C)c1 [Compound J722] |  |  |  |  | BAW rating [1]: A (50-100); CL rating [2]: A (50-100)
Cc1cc(-c2ncn(-c3ccc(OCC#N)cc3)n2)ccc1NC(=O)/N=C1\SCC(=O)N1c1cc(N(C)C)ccc1C(C)C [Compound J357, (Z)-1-(4-(1-(4-(Cyanomethoxy)phenyl)-1H-1,2,4-triazol-3-yl)-2-methylphenyl)-3-(3-(5-(dimethylamino)-2-isopropylphenyl)-4-oxothiazolidin-2-ylidene)urea] |  |  | 50 to 100 | 50 to 100 | 
Cc1cc(COCC(F)(F)F)c(N2C(=O)CS/C2=N\C(=O)Nc2ccc(-c3ncn(-c4ccc(S(F)(F)(F)(F)F)cc4)n3)cc2C(F)(F)F)cc1C [Compound J632, (Z)-1-(3-(4,5-Dimethyl-2-((2,2,2-trifluoroethoxy)methyl)phenyl)-4-oxothiazolidin-2-ylidene)-3-(4-(1-(4-(pentafluoro-λ^6-sulfaneyl)phenyl)-1H-1,2,4-triazol-3-yl)-2-(trifluoromethyl)phenyl)urea] |  |  | 50 to 100 | 50 to 100 | 
CC(C)c1ccc(N(C)C)cc1N1C(=O)CS/C1=N\C(=O)Nc1ccc(-c2cn(-c3ccc(C(F)(F)F)cn3)cn2)cc1 [Compound J520, (Z)-1-(3-(5-(Dimethylamino)-2-isopropylphenyl)-4-oxothiazolidin-2-ylidene)-3-(4-(1-(5-(trifluoromethyl)pyridin-2-yl)-1H-imidazol-4-yl)phenyl)urea] |  |  | 50 to 100 | 50 to 100 | 
Cc1ccc(Cc2ccccc2)c(N2C(=O)CS/C2=N\C(=O)Nc2ccc(-c3ncn(-c4ccc(S(F)(F)(F)(F)F)cc4)n3)cc2F)c1 [Compound J563, (Z)-1-(3-(2-Benzyl-5-methylphenyl)-4-oxothiazolidin-2-ylidene)-3-(2-fluoro-4-(1-(4-(pentafluoro-λ^6-sulfaneyl)phenyl)-1H-1,2,4-triazol-3-yl)phenyl)urea] |  |  | 50 to 100 | 50 to 100 | 
Cc1cc(COCC(F)(F)F)c(N2C(=O)CS/C2=N\C(=O)Nc2ccc(-c3ncn(-c4ccc(OC(F)(F)F)cc4)n3)cc2C)cc1C [Compound J460] |  |  |  |  | BAW rating [1]: A (50-100); CL rating [2]: A (50-100)
CC(C)c1ccc(N(C)C)cc1N1C(=O)CS/C1=N\C(=O)Nc1ccc(-c2cn(-c3ccc(OC(F)(F)F)cc3)cn2)cc1F [Compound J474, (Z)-1-(3-(5-(Dimethylamino)-2-isopropylphenyl)-4-oxothiazolidin-2-ylidene)-3-(2-fluoro-4-(1-(4-(trifluoromethoxy)phenyl)-1H-imidazol-4-yl)phenyl)urea] |  |  | 50 to 100 | 50 to 100 | 
Cc1cc(COCC(F)(F)F)c(N2C(=O)CS/C2=N\C(=O)Nc2ccc(-c3ncn(-c4ccc(S(F)(F)(F)(F)F)cc4)n3)cc2C#N)cc1C [Compound J587, (Z)-1-(2-Cyano-4-(1-(4-(pentafluoro-λ^6-sulfaneyl)phenyl)-1H-1,2,4-triazol-3-yl)phenyl)-3-(3-(4,5-dimethyl-2-((2,2,2-trifluoroethoxy)methyl)phenyl)-4-oxothiazolidin-2-ylidene)urea] |  |  | 50 to 100 | 50 to 100 | 
Cc1ccc(Cc2cccc(F)c2)c(N2C(=O)CS/C2=N\C(=O)Nc2ccc(-c3ncn(-c4ccc(OC(F)(F)F)cc4)n3)cc2F)c1 [Compound J676, (Z)-1-(2-Fluoro-4-(1-(4-(trifluoromethoxy)phenyl)-1H-1,2,4-triazol-3-yl)phenyl)-3-(3-(2-(3-fluorobenzyl)-5-methylphenyl)-4-oxothiazolidin-2-ylidene)urea] |  |  | 50 to 100 | 50 to 100 | 
Cc1ccc(C(C)C)c(N2C(=O)CS/C2=N\C(=O)Nc2ccc(-c3ncn(-c4ccc(OC(F)(F)F)cc4)n3)cc2Br)c1 [Compound J217, (Z)-1-(2-Bromo-4-(1-(4-(trifluoromethoxy)phenyl)-1H-1,2,4-triazol-3-yl)phenyl)-3-(3-(2-isopropyl-5-methylphenyl)-4-oxothiazolidin-2-ylidene)urea] | 50 to 100 | 50 to 100 |  |  | 
CCCc1ccc(C)cc1N1C(=O)CS/C1=N\C(=O)Nc1ccc(-c2ncn(-c3ccc(S(F)(F)(F)(F)F)cc3)n2)cc1F [Compound J498] |  |  |  |  | BAW rating [1]: A (50-100); CL rating [2]: A (50-100)
